Results reported in the supplement of paper PMC11061612.

Assays:
Assay in all cases: Bliss excess, mean over the matrix (fraction); higher = more synergy
T47D (Breast Carcinoma) = test system: T47D (Breast Carcinoma)
Outline: (§1)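 Cell lines in DMEM/F12 or RPMI with 10% FBS were plated in 1536-well plates, held 24 hours at 37°C, 5% CO2, then given two-drug dose matrices for 72 hours (DMSO typically 0.2%). Viability was read by CellTiter-Glo 2.0 luminescence and scaled as inhibition from 0 (vehicle wells) to 1 (blank wells). Combination Emax is the second-highest inhibition in the matrix; Bliss excess is observed combination effect minus expected EA + EB − EA·EB, EA and EB being single-agent effects.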

NCI-H226 (Mesothelioma) = test system: NCI-H226 (Mesothelioma)
Outline: as §1

[1] = test system: MM1S (Plasma Cell Myeloma)
Outline: as §1

IST-MEL1 (Melanoma) = test system: IST-MEL1 (Melanoma)
Outline: as §1

[2] = test system: SNU-407 (Colorectal Carcinoma)
Outline: as §1

NB1 (Neuroblastoma) = test system: NB1 (Neuroblastoma)
Outline: as §1

[3] = test system: SAT (Head and Neck Carcinoma)
Outline: as §1

[4] = test system: OAW-28 (Ovarian Carcinoma)
Outline: as §1

[5] = test system: SK-CO-1 (Colorectal Carcinoma)
Outline: as §1

[6] = test system: LS-1034 (Colorectal Carcinoma)
Outline: as §1

[7] = test system: SiHa (Cervical Carcinoma)
Outline: as §1

NCI-H2373 (Mesothelioma) = test system: NCI-H2373 (Mesothelioma)
Outline: as §1

[8] = test system: SUP-M2 (T-Cell Non-Hodgkin's Lymphoma)
Outline: as §1

[9] = test system: T84 (Colorectal Carcinoma)
Outline: as §1

[10] = test system: LCLC-103H (Non-Small Cell Lung Carcinoma)
Outline: as §1

[11] = test system: ZR-75-30 (Breast Carcinoma)
Outline: as §1

[12] = test system: NCI-H1876 (Small Cell Lung Carcinoma)
Outline: as §1

[13] = test system: OVCAR-3 (Ovarian Carcinoma)
Outline: as §1

[14] = test system: NCI-H1963 (Small Cell Lung Carcinoma)
Outline: as §1

Structure (SMILES) | Bliss excess (T47D (Breast Carcinoma)) | Bliss excess (NCI-H226 (Mesothelioma)) | Bliss excess [1] | Bliss excess (IST-MEL1 (Melanoma)) | Bliss excess [2] | Bliss excess (NB1 (Neuroblastoma)) | Bliss excess [3] | Bliss excess [4] | Bliss excess [5] | Bliss excess [6] | Bliss excess [7] | Bliss excess (NCI-H2373 (Mesothelioma)) | Bliss excess [8] | Bliss excess [9] | Bliss excess [10] | Bliss excess [11] | Bliss excess [12] | Bliss excess [13] | Bliss excess [14]
CN(C)CCCOc1ccc(-c2ccc3ncc4c(c3c2)n(C2CCOCC2)c(=O)n4C)cn1 [AZD0156] + O=C(c1cc(Cc2n[nH]c(=O)c3ccccc23)ccc1F)N1CCN(C(=O)C2CC2)CC1 [Olaparib] (first compound max 3 µM, partner max 3 µM) | 0.0296 | -0.0594 | 0.0231 | 0.0034 | -0.0122 | -0.0721 | -0.0346 | 0.0871 | -0.0173 | 0.0657 | -0.0248 | 0.0178 | 0.202 | -0.0535 | 0.0713 | -0.0203 | 0.103 | -0.0371 | 
C=CCn1c(=O)c2cnc(Nc3ccc(N4CCN(C)CC4)cc3)nc2n1-c1cccc(C(C)(C)O)n1 [AZD1775] + C1CN(CCC1(C(=O)N[C@@H](CCO)C2=CC=C(C=C2)Cl)N)C3=NC=NC4=C3C=CN4 [Capivasertib] (first compound max 3 µM, partner max 3 µM) | -0.031 | -0.0662 | 0.0171 |  | -0.027 | -0.0592 | -0.0616 | 0.0019 | -0.0603 | -0.0125 | -0.0212 | -0.0393 | 0.0518 | -0.0807 | -0.0462 | -0.0501 | -0.0304 | -0.025 | 
COc1nnc2ccc(N3CCC(c4ccc(OCCN5CCN(C)C(=O)[C@H]5C)cc4)CC3)nn12 [AZD5153] + C=CCn1c(=O)c2cnc(Nc3ccc(N4CCN(C)CC4)cc3)nc2n1-c1cccc(C(C)(C)O)n1 [AZD1775] (first compound max 1 µM, partner max 1 µM) | -0.0262 | -0.0349 | -0.0412 | -0.0398 | -0.0278 | -0.0461 | -0.0305 | -0.0382 | -0.0741 | -0.0549 | -0.0583 | -0.0589 | -0.0123 | -0.0643 | -0.0128 | -0.042 | 0.0224 | 0.0107 | -0.0427
COc1nnc2ccc(N3CCC(c4ccc(OCCN5CCN(C)C(=O)[C@H]5C)cc4)CC3)nn12 [AZD5153] + CC1(C)CCC(CN2CCN(c3ccc(C(=O)NS(=O)(=O)c4ccc(NCC5CCOCC5)c([N+](=O)[O-])c4)c(Oc4cnc5[nH]ccc5c4)c3)CC2)=C(c2ccc(Cl)cc2)C1 [Venetoclax] (first compound max 1 µM, 7x7, partner max 1 µM) | -0.0713 | -0.0192 | -0.0394 | -0.0812 | -0.0217 | -0.0863 | -0.0525 | -0.0949 | -0.0312 | -0.011 | -0.0986 | -0.0769 | -0.0172 | -0.0874 | -0.0404 | -0.0852 | 0.0029 | -0.0157 | 0.0782
COc1nnc2ccc(N3CCC(c4ccc(OCCN5CCN(C)C(=O)[C@H]5C)cc4)CC3)nn12 [AZD5153] + CCN(CCO)CCCOc1ccc2c(Nc3cc(CC(=O)Nc4cccc(F)c4)[nH]n3)ncnc2c1 [AZD2811] (first compound max 1 µM, 7x7, partner max 1 µM) | -0.0182 | -0.0697 | 0.106 | -0.0196 | -0.0476 | -0.0071 | -0.0368 | -0.0115 | -0.0746 | -0.046 | 0.0047 | -0.0642 | -0.0132 | -0.0536 | -0.0104 | -0.0008 | 0.0183 | -0.0394 | -0.0585
COc1nnc2ccc(N3CCC(c4ccc(OCCN5CCN(C)C(=O)[C@H]5C)cc4)CC3)nn12 [AZD5153] + CN(CC[C@H](CSC1=CC=CC=C1)NC2=C(C=C(C=C2)S(=O)(=O)NC(=O)C3=CC=C(C=C3)N4CCC(CC4)[C@H](C5=CC=CC=C5C6=CC=C(C=C6)Cl)O)S(=O)(=O)C(F)(F)F)CCO [AZD4320] (first compound max 1 µM, 7x7, partner max 1 µM) | 0.055 |  | 0.0694 |  | 0.0156 | 0.0126 | 0.0464 | 0.0297 |  |  | 0.0846 | 0.0157 | -0.0028 |  |  |  | 0.134 | 0.0914 | 0.0696
COc1nnc2ccc(N3CCC(c4ccc(OCCN5CCN(C)C(=O)[C@H]5C)cc4)CC3)nn12 [AZD5153] + C[C@@H]1COCCN1C2=NC(=NC(=C2)C3(CC3)[S@](=N)(=O)C)C4=C5C=CNC5=NC=C4 [AZD6738] (first compound max 1 µM, 7x7, partner max 10 µM) | 0.0796 | 0.0038 | 0.0719 | 0.0206 | 0.003 | 0.0095 | 0.031 | 0.11 | -0.0179 | -0.0132 | 0.101 | -0.0263 | -0.0205 | -0.131 | 0.0525 | 0.019 | 0.089 | 0.0931 | -0.0228
COc1nnc2ccc(N3CCC(c4ccc(OCCN5CCN(C)C(=O)[C@H]5C)cc4)CC3)nn12 [AZD5153] + Cc1c2c(nn1C)CSCc1cc(n(C)n1)CSc1cc(c3ccccc3c1)OCCCc1c(C(=O)O)n(C)c3c-2c(Cl)ccc13 [AZD5991] (first compound max 1 µM, 7x7, partner max 1 µM) | 0.0003 | -0.0209 | 0.15 | -0.0116 | -0.0996 | -0.0211 | 0.0109 | 0.0515 | -0.0377 | -0.0569 | -0.0237 | -0.0104 | -0.0372 | -0.0524 | 0.0179 | 0.0034 | 0.157 | 0.0003 | 0.0125
COc1nnc2ccc(N3CCC(c4ccc(OCCN5CCN(C)C(=O)[C@H]5C)cc4)CC3)nn12 [AZD5153] + Cn1cnc2c(F)c(Nc3ccc(Br)cc3Cl)c(C(=O)NOCCO)cc21 [Selumetinib] (first compound max 1 µM, 7x7, partner max 10 µM) | 0.0101 | -0.045 | 0.109 | 0.0304 | -0.0175 | -0.0454 | 0.002 | 0.0279 | -0.0134 | 0.0264 | -0.0197 | -0.0666 | -0.0138 | -0.0588 | 0.0325 | -0.0133 | -0.0499 | -0.0489 | -0.0176
NC1(C(=O)N[C@@H](CCO)c2ccc(Cl)cc2)CCN(c2ncnc3[nH]ccc23)CC1 [Capivasertib] + CC(=O)c1c(C)c2cnc(Nc3ccc(N4CCNCC4)cn3)nc2n(C2CCCC2)c1=O [Palbociclib] (first compound max 10 µM, 7x7, partner max 10 µM) | -0.0115 | -0.0792 | -0.0128 | -0.0106 | -0.0267 | -0.0201 | -0.0203 | -0.0162 | -0.0319 | -0.0157 | -0.022 | -0.0016 | 0.0198 | -0.0175 | -0.0146 | -0.0173 | -0.0263 | -0.0396 | -0.0584
NC1(C(=O)N[C@@H](CCO)c2ccc(Cl)cc2)CCN(c2ncnc3[nH]ccc23)CC1 [Capivasertib] + CC(C)n1c(=O)n(C)c2cnc3cc(F)c(-c4ccc(OCCCN5CCCCC5)nc4)cc3c21 [AZD1390] (first compound max 10 µM, 7x7, partner max 0.3 µM) | -0.0476 | -0.0484 | -0.0204 | -0.0392 | -0.0261 | -0.0688 | -0.0275 | -0.0674 | -0.0173 | -0.0447 | -0.046 | -0.051 | 0.0202 | -0.0417 | -0.0712 | -0.0471 | -0.0805 | -0.0438 | -0.0615
NC1(C(=O)N[C@@H](CCO)c2ccc(Cl)cc2)CCN(c2ncnc3[nH]ccc23)CC1 [Capivasertib] + CCN(CCO)CCCOc1ccc2c(Nc3cc(CC(=O)Nc4cccc(F)c4)[nH]n3)ncnc2c1 [AZD2811] (first compound max 10 µM, 7x7, partner max 1 µM) | 0.071 | -0.0459 | 0.0257 | -0.0347 | -0.0833 | -0.0284 | -0.0307 | 0.0262 | -0.0431 | -0.0634 | 0.0067 | -0.079 | -0.0005 | -0.104 | -0.0032 | -0.0115 | 0.0781 | 0.0224 | -0.023
Cc1nc(Nc2ncc(C(=O)Nc3c(C)cccc3Cl)s2)cc(N2CCN(CCO)CC2)n1 [Dasatinib] + CC(=O)Nc1cccc(-n2c(=O)n(C3CC3)c(=O)c3c(Nc4ccc(I)cc4F)n(C)c(=O)c(C)c32)c1 [Trametinib] (first compound max 2 µM, 7x7, partner max 1 µM) | -0.0855 | 0.027 | -0.0089 |  | 0.0332 | -0.0502 | -0.0712 | 0.0599 | 0.0602 | -0.0302 | -0.0082 | -0.0756 | -0.0216 | -0.0174 | 0.0201 | -0.0511 | -0.0548 | -0.001 | 0.0078
CC(=O)c1c(C)c2cnc(Nc3ccc(N4CCNCC4)cn3)nc2n(C2CCCC2)c1=O [Palbociclib] + CN(CC[C@H](CSC1=CC=CC=C1)NC2=C(C=C(C=C2)S(=O)(=O)NC(=O)C3=CC=C(C=C3)N4CCC(CC4)[C@H](C5=CC=CC=C5C6=CC=C(C=C6)Cl)O)S(=O)(=O)C(F)(F)F)CCO [AZD4320] (first compound max 10 µM, 7x7, partner max 1 µM) | -0.0628 |  | -0.0634 |  | -0.0556 | -0.0677 | -0.0941 | -0.004 |  |  | -0.044 | -0.0794 | 0.0414 |  |  |  | -0.0286 | -0.0429 | 0.0164
C[C@@H](c1ccc2nccn2c1)n1nnc2ncc(-c3cnn(C)c3)nc21 [Savolitinib] + CN(CC[C@H](CSC1=CC=CC=C1)NC2=C(C=C(C=C2)S(=O)(=O)NC(=O)C3=CC=C(C=C3)N4CCC(CC4)[C@H](C5=CC=CC=C5C6=CC=C(C=C6)Cl)O)S(=O)(=O)C(F)(F)F)CCO [AZD4320] (first compound max 1 µM, 7x7, partner max 1 µM) | 0 |  | -0.034 |  | -0.319 | -0.0318 | -0.0345 | -0.006 |  |  | -0.0396 | -0.0681 | -0.058 |  |  |  | -0.0256 | -0.0388 | 0.0022
